Calls of active or inactive are those of the source. No cut-off for these calls is given here.
Key:
[1] = tested on: Klebsiella pneumoniae; experiment: Antibacterial activity against Klebsiella pneumoniae KCTC 2690; format: functional
[2] = tested on: Micrococcus luteus; experiment: Antibacterial activity against Micrococcus luteus KCTC 1915; format: functional
[3] = tested on: RAW264.7; experiment: Antiinflammatory activity in mouse RAW264.7 cells; format: functional, cell-based
[4] = tested on: Escherichia coli; experiment: Antibacterial activity against Escherichia coli KCTC 2441; format: functional
[5] = tested on: Staphylococcus aureus; experiment: Antibacterial activity against Staphylococcus aureus KCTC 1927; format: functional
[6] = tested on: Bacillus subtilis; experiment: Antibacterial activity against Bacillus subtilis KCTC 1021; format: functional
[7] = tested on: Salmonella typhimurium; experiment: Antibacterial activity against Salmonella typhimurium KCTC 2515; format: functional, Salmonella enterica subsp. enterica serovar Typhimurium; conditions: Salmonella enterica

| MIC [1] | MIC [2] | MIC [4] | MIC [5] | MIC [6] | MIC [7] | SMILES | Activity [3] |
| --- | --- | --- | --- | --- | --- | --- | --- |
| > 128 µg/mL | > 128 µg/mL | > 128 µg/mL | > 128 µg/mL | > 128 µg/mL | > 128 µg/mL | CCCCCCCC/C=C\C/C=C\CCC[C@H](C)[C@H]1OC[C@H](CO)O1 | inactive |
| > 128 µg/mL | > 128 µg/mL | > 128 µg/mL | > 128 µg/mL | > 128 µg/mL | > 128 µg/mL | CCCCCCCCCCC/C=C\C=C\C(O)CC[C@H](C)[C@H]1OC[C@H](CO)O1 (stereo not given in full) | inactive |
| > 128 µg/mL | > 128 µg/mL | > 128 µg/mL | > 128 µg/mL | > 128 µg/mL | > 128 µg/mL | CCCCCCCCCC/C=C\C/C=C\CCC[C@H](C)[C@H]1OC[C@H](CO)O1 | inactive |
| > 128 µg/mL | > 128 µg/mL | > 128 µg/mL | > 128 µg/mL | > 128 µg/mL | > 128 µg/mL | CCCCCCCCCCC/C=C\CCC[C@H](C)[C@H]1OC[C@H](CO)O1 | inactive |
| > 128 µg/mL | > 128 µg/mL | > 128 µg/mL | > 128 µg/mL | > 128 µg/mL | > 128 µg/mL | CCCCCCCCC/C=C\C/C=C\CCC[C@H](C)[C@H]1OC[C@H](CO)O1 | inactive |

From ChEMBL document CHEMBL5584286, “Structure Determination of 1,3-Dioxolane-Containing Lipids from the Marine Sponge Leucetta sp. Using Chiral 1H NMR Analysis of Model Systems” (2024)
